Target: T1, ADORA2A (Homo sapiens, UniProt P29274)
T1 construct: purchased Promega (in-house HiBiT-GPCR construct library, NanoBRET)
Experiment: NanoBRET screen HiBiT-ADORA2A in HEK293
Format: binding
Procedure: Each tracer candidate was screened across the entire library of HiBiT-GPCR constructs using NanoBRET as the detection modality. As depicted in Figure 4A, the specificity of interactions was evaluated through decrease in BRET due to competitive displacement of a bound tracer by excess parental compound. Each tracer was analyzed for binding to each HiBiT-GPCR fusion in the absence and in the presence of competing parental compound. Briefly, HEK293 cells were transfected with HiBiT-GPCR constructs diluted into promoterless DNA to reduce expression and maximize translocation to the cell surface. Each tracer candidate was then screened at concentrations of 1 μM and 0.1 μM across cells expressing these fusions. Cells were treated for 1.5 h with tracer either alone or in the presence of 20 μM competing parental compound (i.e., control). BRET was measured upon addition of purified LgBiT and subsequent complementation with HiBiT genetically fused to a GPCR. The specificity of interactions was assessed through a decrease in BRET signal due to competitive displacement of the bound tracer. To further gauge the robustness of these interactions, the fold response over the control (i.e., BRETtracer/BRETcontrol) was calculated. We chose a 1.5-fold response, which translates to ≥7-fold signal over noise as the minimal threshold required to score an interaction as positive.
HiBiT-GPCR DNA constructs were diluted in 10 mM Tris pH 8 to a final concentration of 0.01 μg/μL, arrayed in 96-well plates and stored at −20 °C. For transfection, HEK293 cells were suspended in Opti-MEM (without phenol red) supplemented with 2% fetal bovine serum (Seradigm) and 100 units/mL penicillin–streptomycin (Gibco) at a final concentration of 220,000 cells/mL and dispensed into white 96-well plates at 90 μL/well. Subsequent transfections and screens were carried using an Agilent Bravo Automated Liquid Handling Platform. First, the 96-well HiBiT DNA arrays were diluted 25-fold in Opti-MEM (without serum or phenol red) to a final concentration of 0.0004 μg/μL and 20 μL of the diluted DNAs were transferred into new 96-well plates. Next, promoterless carrier DNA (1 μg/μL) was diluted 25-fold (0.04 μg/μL) and then dispensed into the diluted arrays at 20 μL/well. Following brief mixing, Viafect transfection reagent (Promega) diluted 16-fold into Opti-MEM was dispensed into the plates at 40 μL/well. After mixing by pipetting, plates were incubated for 10 min on the pipetting station deck. The DNA-transfection reagent complexes were then added to plates containing cells. To facilitate the screen, 10 μL of DNA-transfection reagent complexes were added in duplicates to the top 4 and bottom 4 rows, resulting in two identical 48-well arrays per plate. Plates with transfected cells were incubated for 18–20 h at 37 °C/5% CO2. A screen of each tracer across the entire library using two different concentrations requires duplicate plates of transfected cells. Depending on the number of tracers being screened, transfections can be scaled up using the same ratios. The next day, for each tracer, four 20× screening solutions in tracer dilution buffer (Promega) were prepared: two duplicates at final concentration of 20 μM and two duplicates at a final concentration of 2 μM. […] The four resulting solutions were diluted 4-fold in Opti-MEM without serum or phenol red to generate 5× solutions (5 µM and 0.5 µM tracer +/− 100 μM competing compound). To screen the library, a BioTek MultiFlo FX liquid dispenser was used to dispense 22.5 µL of tracer solution to the top 4 rows and 22.5 µL tracer + competing compound solution to the 4 bottom rows. Plates were briefly mixed on an orbital shaker and incubated for 1.5 h at room temperature. […] Plates were briefly mixed on an orbital shaker and incubated for 15 min to allow complementation.

T1 sequence (P29274 whole entry): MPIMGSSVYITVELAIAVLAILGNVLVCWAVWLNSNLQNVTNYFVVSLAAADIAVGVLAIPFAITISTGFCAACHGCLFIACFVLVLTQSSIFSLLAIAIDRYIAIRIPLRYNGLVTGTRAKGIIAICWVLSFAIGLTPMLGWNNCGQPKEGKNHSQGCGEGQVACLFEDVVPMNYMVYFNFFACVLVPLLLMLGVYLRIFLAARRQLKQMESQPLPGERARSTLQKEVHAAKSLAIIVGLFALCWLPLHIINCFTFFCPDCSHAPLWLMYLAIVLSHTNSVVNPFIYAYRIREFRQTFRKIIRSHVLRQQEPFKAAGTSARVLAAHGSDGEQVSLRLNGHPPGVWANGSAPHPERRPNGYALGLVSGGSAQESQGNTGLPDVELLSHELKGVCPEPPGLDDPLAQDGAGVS

Structure (SMILES)	NanoBRET Fold Response (ADORA2A, tracer 0.1μM)	NanoBRET Fold Response (ADORA2A, tracer 1μM)	also measured
COc1ccc2c(n1)c(CCNC(C)=O)cn2CCNC(=O)CCc1ccc2n1[B-](F)(F)[N+]1=C(c3ccc[nH]3)C=CC1=C2 [Azamelatonin-1-NB590]			NanoBRET Fold Response (0.1μM tracer): 0.87; NanoBRET Fold Response (1μM tracer): 0.92
CC(C)N(CC[C@H](c1ccccc1)c1cc(CCNC(=O)c2ccc(CNC(=O)CCc3ccc4n3[B-](F)(F)[N+]3=C(c5ccc[nH]5)C=CC3=C4)cc2)ccc1O)C(C)C [Tolterodine-BZ-NB590]	1.00	1.01	
O=C(CCc1ccc2n1[B-](F)(F)[N+]1=C(c3ccc[nH]3)C=CC1=C2)NCCOCCOCCNC(=O)OCCOCCN1CCN(C2=Nc3ccccc3Sc3ccccc32)CC1 [Quetiapine-a-2-NB590]	0.99	0.91	
Cc1cc2c(s1)Nc1ccccc1N=C2N1CCN(CCCNC(=O)CCOCCOCCOCCOCCNC(=O)CCc2ccc3n2[B-](F)(F)[N+]2=C(c4ccc[nH]4)C=CC2=C3)CC1 [Olanzapine-a-2-NB590]	0.97	0.93	
O=C(CCc1ccc2n1[B-](F)(F)[N+]1=C(c3ccc[nH]3)C=CC1=C2)NCc1ccc(C(=O)NCCOCCOCCNCC(O)COc2cccc3ccccc23)cc1 (stereo not shown) [Propranolol-3-NB590]			NanoBRET Fold Response (ADORA2A, 0.1μM): 1.05; NanoBRET Fold Response (ADORA2A, 1μM): 0.99
CN1CCN(C2=Nc3cc(Cl)ccc3N(CC(=O)NCCOCCOCCOCCOCCNC(=O)CCc3ccc4n3[B-](F)(F)[N+]3=C(c5ccc[nH]5)C=CC3=C4)c3ccccc32)CC1 [Clozapine-c-2-NB590]			NanoBRET Fold Response (ADORA2A, 0.1μM tracer): 1.01; NanoBRET Fold Response (ADORA2A, 1μM tracer): 0.94
O=C(CCc1ccc2n1[B-](F)(F)[N+]1=C(c3ccc[nH]3)C=CC1=C2)NCc1ccc(C(=O)NCCOCCC(=O)N[C@@H]2CC[C@@]3(O)[C@H]4Cc5ccc(O)c6c5[C@@]3(CCN4CC3CC3)[C@H]2O6)cc1 [Naltrexone-3-NB590]	1.08	0.58	
CC(C)N(CC[C@H](c1ccccc1)c1cc(CCNC(=O)CCOCCOCCOCCOCCNC(=O)CCc2ccc3n2[B-](F)(F)[N+]2=C(c4ccc[nH]4)C=CC2=C3)ccc1O)C(C)C [Tolterodine-2-NB590]	1.35	0.95	
Cc1nc2n(c(=O)c1CCN1CCC(c3noc4cc(F)ccc34)CC1)CCCC2OC(=O)NCCOCCOCCOCCOCCNC(=O)CCc1ccc2n1[B-](F)(F)[N+]1=C(c3ccc[nH]3)C=CC1=C2 (stereo not shown) [Risperidone-2-NB590]	0.98	0.98	
O=C(CCOCCOCCOCCOCCNC(=O)CCc1ccc2n1[B-](F)(F)[N+]1=C(c3ccc[nH]3)C=CC1=C2)NCCCN1CCN(C2=Nc3cc(Cl)ccc3Nc3ccccc32)CC1 [Clozapine-a-2-NB590]			NanoBRET Fold Response (ADORA2A, 0.1μM tracer): 0.95; NanoBRET Fold Response (ADORA2A, 1μM tracer): 0.89
COc1ccc2[nH]c(-c3ccc(CNC(=O)CCOCCOCCOCCOCCNC(=O)CCc4ccc5n4[B-](F)(F)[N+]4=C(c6ccc[nH]6)C=CC4=C5)cc3)c(CCNC(C)=O)c2n1 [AzomelatoninICO9-2-NB590]			NanoBRET Fold Response (0.1μM tracer): 1.16; NanoBRET Fold Response (1μM tracer): 0.82
CN1CCN(C2=Nc3cc(Cl)ccc3Nc3ccc(CNC(=O)CCOCCOCCOCCOCCNC(=O)CCc4ccc5n4[B-](F)(F)[N+]4=C(c6ccc[nH]6)C=CC4=C5)cc32)CC1 [Clozapine-b-2-NB590]			NanoBRET Fold Response (ADORA2A, 0.1μM tracer): 0.97; NanoBRET Fold Response (ADORA2A, 1μM tracer): 1.00
COc1ccccc1N1CCN(CCCCN2C(=O)c3ccc(CNC(=O)CCOCCNC(=O)c4ccc(CNC(=O)CCc5ccc6n5[B-](F)(F)[N+]5=C(c7ccc[nH]7)C=CC5=C6)cc4)cc3C2=O)CC1 [NAN-190-3-NB590]	1.00	0.91	
N#CN=C(NCCCOc1cccc(CN2CCCCC2)c1)NCCNC(=O)CCOCCOCCOCCOCCNC(=O)CCc1ccc2n1[B-](F)(F)[N+]1=C(c3ccc[nH]3)C=CC1=C2 [Aminopotentidine-2-NB590]	1.05	0.99	
CN(C)CCC=C1c2ccccc2CCc2ccc(C(=O)NCCNC(=O)CCOCCOCCOCCOCCNC(=O)CCc3ccc4n3[B-](F)(F)[N+]3=C(c5ccc[nH]5)C=CC3=C4)cc21 [Amitriptyline-b-2-NB590]			NanoBRET Fold Response (tracer at 0.1μM, listed as amitriptyline-b-2-NB590): 1.07; NanoBRET Fold Response (tracer at 1μM, listed as amitriptyline-b-2-NB590): 1.20
COc1ccccc1N1CCN(CCCCN2C(=O)c3ccc(CNC(=O)CCOCCOCCOCCOCCNC(=O)CCc4ccc5n4[B-](F)(F)[N+]4=C(c6ccc[nH]6)C=CC4=C5)cc3C2=O)CC1 [NAN-190-2-NB590]	1.02		
O=C(CCOCCOCCOCCOCCNC(=O)CCc1ccc2n1[B-](F)(F)[N+]1=C(c3ccc[nH]3)C=CC1=C2)NCCCN1CCN(C2=Nc3ccccc3Oc3ccc(Cl)cc32)CC1 [Loxapine-a-2-NB590]	1.08	1.11	
CN(CCC=C1c2ccccc2CCc2ccccc21)C(=O)CCOCCOCCOCCOCCNC(=O)CCc1ccc2n1[B-](F)(F)[N+]1=C(c3ccc[nH]3)C=CC1=C2 [Amitriptyline-e-2-NB590]			NanoBRET Fold Response (tracer at 1μM): 1.07
CCCn1c(=O)c2[nH]c(-c3ccc(OCC(=O)NCCNC(=O)CCOCCNC(=O)c4ccc(CNC(=O)CCc5ccc6n5[B-](F)(F)[N+]5=C(c7ccc[nH]7)C=CC5=C6)cc4)cc3)nc2n(CCC)c1=O [XAC-3-NB590]	7.87	9.18	
CN(C)CCC=C1c2ccccc2CCc2ccc(C(=O)NCCNC(=O)CCOCCOCCOCCOCCNC(=O)CCc3ccc4n3[B-](F)(F)[N+]3=C(c5ccc[nH]5)C=CC3=C4)cc21 [Amitriptyline-a-2-NB590]			NanoBRET Fold Response (tracer at 0.1μM): 1.02; NanoBRET Fold Response (tracer at 1μM): 1.07
CCOC(=O)c1cc(C#N)c(N2CCC(C(=O)NS(=O)(=O)Cc3ccccc3/C=C/C(=O)NCCNC(=O)CCc3ccc4n3[B-](F)(F)[N+]3=C(c5ccc[nH]5)C=CC3=C4)CC2)nc1C [AZD1283-1-NB590]			NanoBRET Fold Response (ADORA2A, 0.1μM): 1.06; NanoBRET Fold Response (ADORA2A, 1μM): 1.04
